Results reported in ChEMBL document CHEMBL6083270, “Synthesis and biological evaluation of 4,7,9-trisubstituted benzoxazepines as antileishmanial agents” (Bioorg Med Chem Lett, 2024).

Key:
Leishmania mexicana = assay: Antileishmanial activity against Leishmania mexicana intracellular amastigotes; type: functional, organism-based
[1] = Cytotoxicity against mouse J774.A1 cells assessed as reduction in cell viability; type: toxicity, cell-based
[2] = Selectivity index, ratio of EC50 for mouse J774.A1 cells to EC50 for Leishmania mexicana intracellular amastigotes; type: toxicity, cell-based; conditions: read-out: Ratio EC50

## COc1ccccc1C(=O)N1CCOc2c(cc(-c3ccc(C)s3)cc2OCC2CCCN(C)C2)C1 (configuration not stated)
Leishmania mexicana
  EC50: 6.1 µM

## Cc1cccc(CN2CCOc3c(cc(-c4ccc(C)s4)cc3OCC3CCCN(C)C3)C2)n1 (configuration not stated)
Leishmania mexicana
  EC50: 5.3 µM

## Cc1noc(C)c1CC(=O)N1CCOc2c(cc(Br)cc2OCC2CCCN(C)C2)C1 (configuration not stated)
[1]
  EC50: > 50 µM

## Cc1ccc(-c2cc3c(c(OCC4CCCN(C)C4)c2)OCCN(Cc2cn(C)nc2C)C3)s1 (configuration not stated)
Leishmania mexicana
  EC50: 5.8 µM

## COc1ccc(C(=O)N2CCOc3c(cc(-c4ccc(C)s4)cc3OCC3CCCN(C)C3)C2)c(OC)c1 (configuration not stated)
Leishmania mexicana
  EC50: 3.9 µM

## CN1CCCC(COc2cc(-c3cccc(Cl)c3)cc3c2OCCNC3)C1 (configuration not stated)
Leishmania mexicana
  EC50: 2.2 µM

## Cc1noc(C)c1CC(=O)N1CCOc2c(O)cc(-c3cccc(F)c3)cc2C1
Leishmania mexicana
  EC50: 29.5 µM

## Cc1noc(C)c1CC(=O)N1CCOc2c(cc(-c3ccnn3C)cc2OCC2CCCN(C)C2)C1 (configuration not stated)
Leishmania mexicana
  EC50: 25 µM
[1]
  EC50: > 50 µM

## Cc1ccc(-c2cc3c(c(OCC4CCCN(C)C4)c2)OCCN(C(=O)Cc2ccc(F)cc2)C3)s1 (configuration not stated)
Leishmania mexicana
  EC50: 4.9 µM

## Cc1noc(C)c1CC(=O)N1CCOc2c(cc(CC3CC3)cc2OCC2CCCN(C)C2)C1 (configuration not stated)
[1]
  EC50: > 50 µM

## Cc1noc(C)c1CC(=O)N1CCOc2c(cc(-c3ccccc3Cl)cc2OCC2CCCN(C)C2)C1 (configuration not stated)
Leishmania mexicana
  EC50: 2.9 µM
[1]
  EC50: 14.7 µM
[2]
  selectivity ratio: 5.1

## Cc1noc(C)c1CC(=O)N1CCOc2c(cc(-c3cccc(F)c3)cc2OCC2CCCN(C)C2)C1 (configuration not stated)
Leishmania mexicana
  EC50: 2.6 µM
[1]
  EC50: 11.5 µM
[2]
  selectivity ratio: 4.4

## Cc1noc(C)c1CC(=O)N1CCOc2c(cc(-c3ccn(C)n3)cc2OCC2CCCN(C)C2)C1 (configuration not stated)
Leishmania mexicana
  EC50: 16.5 µM
[1]
  EC50: > 50 µM

## CN1CCCC(COc2cc(-c3cccc(Cl)c3)cc3c2OCCN(C(=O)Cc2ccsc2)C3)C1 (configuration not stated)
Leishmania mexicana
  EC50: 11.3 µM

## Cc1noc(C)c1CC(=O)N1CCOc2c(O)cc(-c3cccc(Cl)c3)cc2C1
Leishmania mexicana
  EC50: 15.5 µM

## Cc1ccc(-c2cc3c(c(OCC4CCCN(C)C4)c2)OCCNC3)s1 (configuration not stated)
Leishmania mexicana
  EC50: 3.6 µM

## CC1=NN(C)CC1c1cc2c(c(OCC3CCCN(C)C3)c1)OCCN(C(=O)Cc1c(C)noc1C)C2 (configuration not stated)
Leishmania mexicana
  EC50: 37.5 µM
[1]
  EC50: > 50 µM

## Cc1noc(C)c1CC(=O)N1CCOc2c(cc(-c3cccc(Cl)c3)cc2OCC2CCCN(C)C2)C1 (configuration not stated)
Leishmania mexicana
  EC50: 0.9 µM
[1]
  EC50: 3.2 µM
[2]
  selectivity ratio: 3.6

## Cc1ccc(-c2cc3c(c(OCC4CCCN(C)C4)c2)OCCN(C(=O)Cc2c(C)noc2C)C3)s1 (configuration not stated)
Leishmania mexicana
  EC50: 2.3 µM
[1]
  EC50: 4.7 µM
[2]
  selectivity ratio: 2

## Cc1ccc(-c2cc(O)c3c(c2)CN(C(=O)Cc2c(C)noc2C)CCO3)s1
Leishmania mexicana
  EC50: 22.8 µM

## Cc1noc(C)c1CC(=O)N1CCOc2c(cc(-c3ccc(Cl)cc3)cc2OCC2CCCN(C)C2)C1 (configuration not stated)
Leishmania mexicana
  EC50: 1.6 µM
[1]
  EC50: 5.5 µM
[2]
  selectivity ratio: 3.4

## Cc1ccc(-c2cc3c(c(OCC4CCCN(C)C4)c2)OCCN(C(=O)C2CC2)C3)s1 (configuration not stated)
Leishmania mexicana
  EC50: 10.2 µM

## Cc1noc(C)c1CC(=O)N1CCOc2c(cc(-c3cccnc3)cc2OCC2CCCN(C)C2)C1 (configuration not stated)
Leishmania mexicana
  EC50: 29 µM
[1]
  EC50: > 50 µM

## Cc1ccc(-c2cc3c(c(OCC4CCCN(C)C4)c2)OCCN(C(=O)C2CCC2)C3)s1 (configuration not stated)
Leishmania mexicana
  EC50: 4.8 µM

## CCCCCCCCCCCCCCCCOP(=O)([O-])OCC[N+](C)(C)C [MILTEFOSINE]
Leishmania mexicana
  EC50: 3.2 µM

## COc1cccc(C(=O)N2CCOc3c(cc(-c4ccc(C)s4)cc3OCC3CCCN(C)C3)C2)c1 (configuration not stated)
Leishmania mexicana
  EC50: 4.4 µM

## Cc1ccc(-c2cc3c(c(OCC4CCCN(C)C4)c2)OCCN(C(=O)c2cccc(Cn4cccn4)c2)C3)s1 (configuration not stated)
Leishmania mexicana
  EC50: 4.6 µM

## CN1CCCC(COc2cc(-c3cccc(Cl)c3)cc3c2OCCN(C(=O)c2cccs2)C3)C1 (configuration not stated)
Leishmania mexicana
  EC50: 4.6 µM
